≈ marks a conversion by molar mass, not a printed value.
Tests used:
Solubility in PBS = format: physicochemical
Method in brief: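 PBS sample ultracentrifuged; supernatant run on HPLC vs. 50 μM peptide in DMSO standard. Solubility = (PBS peak area / DMSO peak area) × 50 uM.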

CHI Log D procedure = format: physicochemical; conditions: pH 7.4

## CC(=O)N1CCC[C@]12CC=CCCCC1(CCCC=CCCCCCC[C@@](C)(C(=O)N[C@@H](Cc3ccccc3)C(=O)N[C@@H](Cc3c[nH]c4ccccc34)C(=O)N[C@@H](CCC(N)=O)C(N)=O)NC(=O)[C@H](C(C)C)NC(=O)[C@H](Cc3ccccc3)NC(=O)[C@H](C)NC(=O)[C@H](C)NC(=O)[C@H](CC(=O)O)NC(=O)[C@H](CC(=O)O)NC1=O)NC(=O)[C@H](C)NC(=O)[C@H](C)NC2=O (stereo partly drawn) [I-349, Ac-PL3-Ala-Ala-B5-Asp-Asp-Ala-Ala-Phe-Val-S8-Phe-Trp-Gln-NH2]
Solubility in PBS
  Solubility: 49 µM (≈ 85.1 µg/mL)
CHI Log D procedure
  CHI Log D: 2.415

## CC(=O)N1CCC[C@]12CC=CCCCC1(CCCC=CCCCCCC[C@@](C)(C(=O)N[C@@H](Cc3ccccc3)C(=O)N[C@@H](Cc3c[nH]c4ccccc34)C(=O)N[C@@H](CCC(N)=O)C(N)=O)NC(=O)[C@H](C(C)C)NC(=O)[C@H](Cc3ccccc3)NC(=O)[C@H](C)NC(=O)[C@H](C)NC(=O)[C@H](CC(=O)O)NC(=O)[C@H](C)NC1=O)NC(=O)[C@H](C)NC(=O)[C@H](CC(=O)O)NC2=O (stereo partly drawn) [I-350, Ac-PL3-Asp-Ala-B5-Ala-Asp-Ala-Ala-Phe-Val-S8-Phe-Trp-Gln-NH2]
Solubility in PBS
  Solubility: 48 µM (≈ 83.4 µg/mL)
CHI Log D procedure
  CHI Log D: 2.887

## CC(=O)N1CCC[C@]12CC=CCCCC1(CCCC=CCCCCCC[C@@](C)(C(=O)N[C@@H](Cc3ccccc3)C(=O)N[C@@H](Cc3c[nH]c4ccccc34)C(=O)N[C@@H](CCC(N)=O)C(N)=O)NC(=O)[C@H](C(C)C)NC(=O)[C@H](Cc3ccccc3)NC(=O)[C@H](C)NC(=O)[C@H](C)NC(=O)[C@H](CC(=O)O)NC(=O)[C@H](C)NC1=O)NC(=O)[C@H](C)NC(=O)[C@H](CC(=O)O)NC2=O (stereo partly drawn) [I-351, Ac-PL3-Asp-Ala-B5-Ala-Asp-Ala-Ala-Phe-Val-S8-Phe-Trp-Gln-NH2]
Solubility in PBS
  Solubility: 50 µM (≈ 86.9 µg/mL)
CHI Log D procedure
  CHI Log D: 2.944

## CC(=O)N1CCC[C@]12CC=CCCCC1(CCCC=CCCCCCC[C@@](C)(C(=O)N[C@@H](C)C(=O)N[C@@H](Cc3c[nH]c4ccccc34)C(=O)N[C@@H](CCC(N)=O)C(N)=O)NC(=O)[C@H](C(C)C)NC(=O)[C@H](Cc3ccccc3)NC(=O)[C@H](C)NC(=O)[C@H](C)NC(=O)[C@H](CC(=O)O)NC(=O)[C@H](CC(=O)O)NC1=O)NC(=O)[C@H](C)NC(=O)[C@H](CC(=O)O)NC2=O (stereo partly drawn) [I-355, Ac-PL3-Asp-Ala-B5-Asp-Asp-Ala-Ala-Phe-Val-S8-Ala-Trp-Gln-NH2]
Solubility in PBS
  Solubility: 49 µM (≈ 83.5 µg/mL)
CHI Log D procedure
  CHI Log D: 1.606

## CC(=O)N1CCC[C@]12CC=CCCCC1(CCCC=CCCCCCC[C@@](C)(C(=O)N[C@@H](Cc3ccccc3)C(=O)N[C@@H](C)C(=O)N[C@@H](CCC(N)=O)C(N)=O)NC(=O)[C@H](C(C)C)NC(=O)[C@H](Cc3ccccc3)NC(=O)[C@H](C)NC(=O)[C@H](C)NC(=O)[C@H](CC(=O)O)NC(=O)[C@H](CC(=O)O)NC1=O)NC(=O)[C@H](C)NC(=O)[C@H](CC(=O)O)NC2=O (stereo partly drawn) [I-358, Ac-PL3-Asp-Ala-B5-Asp-Asp-Ala-Ala-Phe-Val-S8-Phe-Ala-Gln-NH2]
Solubility in PBS
  Solubility: 50 µM (≈ 83.3 µg/mL)
CHI Log D procedure
  CHI Log D: 1.882

## CC(=O)N1CCC[C@]12CC=CCCCC1(CCCC=CCCCCCC[C@@](C)(C(=O)N[C@@H](Cc3ccccc3)C(=O)N[C@@H](Cc3csc4ccccc34)C(=O)N[C@@H](CCC(N)=O)C(N)=O)NC(=O)[C@H](C)NC(=O)[C@H](Cc3c[nH]cn3)NC(=O)[C@H](C)NC(=O)[C@H](C)NC(=O)[C@H](CC(=O)O)NC(=O)[C@H](CC(=O)O)NC1=O)NC(=O)[C@H](C)NC(=O)[C@H](CC(=O)O)NC2=O (stereo partly drawn) [I-363, Ac-PL3-Asp-Ala-B5-Asp-Asp-Ala-Ala-His-Ala-S8-Phe-BztA-Gln-NH2]
Solubility in PBS
  Solubility: 32 µM (≈ 56.3 µg/mL)
CHI Log D procedure
  CHI Log D: 2.09

## CC(=O)N1CCC[C@]12CC=CCCCC1(CCCC=CCCCCCC[C@@](C)(C(=O)N[C@@H](Cc3ccccc3)C(=O)N[C@@H](Cc3csc4ccccc34)C(=O)N[C@@H](CCC(N)=O)C(N)=O)NC(=O)[C@H](C)NC(=O)[C@H](Cc3c[nH]cn3)NC(=O)[C@H](C)NC(=O)[C@H](C)NC(=O)[C@H](CC(=O)O)NC(=O)[C@H](CC(=O)O)NC1=O)NC(=O)[C@H](C)NC(=O)[C@H](CC(=O)O)NC2=O (stereo partly drawn) [I-364, Ac-PL3-Asp-Ala-B5-Asp-Asp-Ala-Ala-His-Ala-S8-Phe-BztA-Gln-NH2]
Solubility in PBS
  Solubility: 26 µM (≈ 45.8 µg/mL)
CHI Log D procedure
  CHI Log D: 2.137

## CC(=O)N1CCC[C@]12CC=CCCCC1(CCCC=CCCCCCC[C@@](C)(C(=O)N[C@@H](Cc3ccccn3)C(=O)N[C@@H](Cc3csc4ccccc34)C(=O)N[C@@H](CCC(N)=O)C(N)=O)NC(=O)[C@H](C(C)C)NC(=O)[C@H](Cc3ccccc3)NC(=O)[C@H](C)NC(=O)[C@H](C)NC(=O)[C@H](CCC(=O)O)NC(=O)[C@H](CC(=O)O)NC1=O)NC(=O)[C@H](C)NC(=O)[C@H](CC(=O)O)NC2=O (stereo partly drawn) [I-383, Ac-PL3-Asp-Ala-B5-Asp-Glu-Ala-Ala-Phe-Val-S8-2pyrA-BztA-Gln-NH2]
Solubility in PBS
  Solubility: 36 µM (≈ 65.3 µg/mL)
CHI Log D procedure
  CHI Log D: 1.859

## CC(=O)N1CCC[C@]12CC=CCCCC1(CCCC=CCCCCCC[C@@](C)(C(=O)N[C@@H](Cc3ccccc3)C(=O)N[C@@H](Cc3csc4ccccc34)C(=O)N[C@@H](CCC(N)=O)C(N)=O)NC(=O)[C@H](C(C)C)NC(=O)[C@H](Cc3ccccn3)NC(=O)[C@H](C)NC(=O)[C@H](C)NC(=O)[C@H](CCC(=O)O)NC(=O)[C@H](CC(=O)O)NC1=O)NC(=O)[C@H](C)NC(=O)[C@H](CC(=O)O)NC2=O (stereo partly drawn) [I-386, Ac-PL3-Asp-Ala-B5-Asp-Glu-Ala-Ala-2pyrA-Val-S8-Phe-BztA-Gln-NH2]
Solubility in PBS
  Solubility: 47 µM (≈ 85.2 µg/mL)
CHI Log D procedure
  CHI Log D: 2.14

## CC(=O)N1CCC[C@]12CC=CCCCC1(CCCC=CCCCCCC[C@@](C)(C(=O)N[C@@H](Cc3cccc(F)c3F)C(=O)N[C@@H](Cc3csc4ccccc34)C(=O)N[C@@H](CCC(N)=O)C(N)=O)NC(=O)[C@H](C(C)C)NC(=O)[C@H](Cc3ccccc3)NC(=O)[C@H](C)NC(=O)[C@H](C)NC(=O)[C@H](CCC(=O)O)NC(=O)[C@H](CC(=O)O)NC1=O)NC(=O)[C@H](C)NC(=O)[C@H](CC(=O)O)NC2=O (stereo partly drawn) [I-388, Ac-PL3-Asp-Ala-B5-Asp-Glu-Ala-Ala-Phe-Val-S8-23FF-BztA-Gln-NH2]
Solubility in PBS
  Solubility: 10 µM (≈ 18.5 µg/mL)
CHI Log D procedure
  CHI Log D: 2.863

## CC(=O)N1CCC[C@]12CC=CCCCC1(CCCC=CCCCCCC[C@@](C)(C(=O)N[C@@H](Cc3cccc(F)c3F)C(=O)N[C@@H](Cc3csc4ccccc34)C(=O)N[C@@H](CCC(N)=O)C(N)=O)NC(=O)[C@H](C(C)C)NC(=O)[C@H](Cc3ccccc3)NC(=O)[C@H](C)NC(=O)[C@H](C)NC(=O)[C@H](CCC(=O)O)NC(=O)[C@H](CC(=O)O)NC1=O)NC(=O)[C@H](C)NC(=O)[C@H](CC(=O)O)NC2=O (stereo partly drawn) [I-389, Ac-PL3-Asp-Ala-B5-Asp-Glu-Ala-Ala-Phe-Val-S8-23FF-BztA-Gln-NH2]
Solubility in PBS
  Solubility: 17 µM (≈ 31.4 µg/mL)
CHI Log D procedure
  CHI Log D: 2.868

## CC(=O)N1CCC[C@]12CC=CCCCC1(CCCC=CCCCCCC[C@@](C)(C(=O)N[C@@H](Cc3ccccc3)C(=O)N[C@@H](Cc3csc4ccccc34)C(=O)N[C@@H](CCC(N)=O)C(N)=O)NC(=O)[C@H](CCC(N)=O)NC(=O)[C@H](Cc3ccccc3)NC(=O)[C@H](C)NC(=O)[C@H](C)NC(=O)[C@H](CCC(=O)O)NC(=O)[C@H](CC(=O)O)NC1=O)NC(=O)[C@H](C)NC(=O)[C@H](Cc1nn[nH]n1)NC2=O (stereo partly drawn) [I-416, Ac-PL3-tetz-Ala-B5-Asp-Glu-Ala-Ala-Phe-Gln-S8-Phe-BztA-Gln-NH2]
Solubility in PBS
  Solubility: 44 µM (≈ 82.1 µg/mL)
CHI Log D procedure
  CHI Log D: 2.058

— patent US20240116985A1, “STAPLED PEPTIDES AND METHODS THEREOF” (priority 2020, published 2024)
